Source: patent publication US20250082656A1, “DOSAGE REGIMENS FOR TREATMENT OF DENGUE INFECTION” (Atea Pharmaceuticals, Inc., priority 2022, published 2025)

Assays:
[1] = system: Chikungunya; assay: Antiviral specificity panel, Chikungunya; type: cell-based; details: Chikungunya virus; RNA virus, Huh-7
[2] = system: HCV; assay: Antiviral specificity panel, HCV; type: cell-based, hepatitis C virus
[3] = Cytotoxicity in CEM-SS cells; type: cell-based; details: human, Table 2, CEM-SS
Procedure: (§1) To assess the antiviral specificity of Compound 1 (AT-281), serial dilutions were incubated with various host cell lines infected with a panel of DNA and RNA viruses other than flaviviruses. The activity of Compound 1 (AT-281) was measured in infected cells using the neutral red assay to determine the effective concentration required to inhibit viral replication 50% (EC50) (described in Example 3) and the threshold concentration required to obtain a perceptible effect on 50% of the cells incubated without virus (CC50). Compound 1 (AT-281) had no activity against the DNA viruses tested and was only weakly or not active against several RNA viruses (Table 2).

[4] = Cytotoxicity in MDCK cells; type: cell-based; details: dog, Table 2, MDCK
Procedure: as §1

[5] = in vitro; details: hamster
[6] = target: DENV2 NS5MTase protein (Dengue virus type 2, UniProt P14340); assay: MTase activity filter-binding assay (FBA); type: biochemical; details: 30° C., 30 min, read-out: IC50 against the MTase domain
Chain of DENV2 NS5MTase protein (P14340 2492-2787 limits assumed): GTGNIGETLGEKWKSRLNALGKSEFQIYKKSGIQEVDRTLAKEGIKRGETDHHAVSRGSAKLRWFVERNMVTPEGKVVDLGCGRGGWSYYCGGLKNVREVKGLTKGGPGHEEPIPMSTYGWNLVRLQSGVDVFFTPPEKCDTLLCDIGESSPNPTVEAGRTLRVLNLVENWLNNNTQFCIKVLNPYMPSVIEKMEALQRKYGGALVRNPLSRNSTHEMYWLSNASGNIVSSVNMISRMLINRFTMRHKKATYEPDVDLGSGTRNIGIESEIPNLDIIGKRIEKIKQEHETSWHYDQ
Procedure: A) Dose-response determination using a filter binding assay (FBA). Reactions were incubated at 30° C. during 30 min and the enzymatic activity was determined using FBA as described in Example 33. […] Interacting residues are labelled and shown as sticks. E) Structural comparison of the position of a GTP (pink) and AT9010 (light brown) bound in the Cap binding site. Cap binding site structures belong to DENV2 (in pink—PDB 2P1D)) and DENV3 (in light brown) MTases and are conserved.
The transfer of tritiated methyl from [3H]-SAM onto RNA substrate was monitored by filter-binding assay (FBA), performed according to the method described previously (Paesen et al., 2015). […] FBA was carried out in reaction mixture [40 mM Tris-HCl (pH 8.0), 1 mM DTT, 2 μM SAM and 0.1 μM 3H-SAM (Perkin Elmer)] in the presence of 0.7 μM mGpppAC4 synthetic RNA and DENV2 NS5MTase protein (500 nM). The enzyme was first mixed with the compound (0.5 to 1000 μM) suspended in water before the addition of RNA substrate and SAM and then incubated at 30° C. Reaction mixtures were stopped after 30 min by their 10-fold dilution in ice-cold water. […] They were soaked with scintillation fluid (Perkin Elmer), and 3H-methyl transfer to the RNA substrates was determined using a Wallac MicroBeta TriLux Liquid Scintillation Counter (Perkin Elmer). […]

[7] = In vivo formation of AT-9010 in PBMCs, monkeys; design: species or system cynomolgus monkeys; details: single oral Compound 2 equivalent to 55 mg/kg Compound 1, 12 h
Procedure: Monkeys were given an oral dose of Compound 2 (AT-752) equivalent to Compound 1 (AT-281) at 55 mg/kg and blood collected at 12, 24 and 48 h. […] Mouse PBMCs were pooled from 3 animals per time point; Rat and monkey data expressed as mean+/−SD (n=2-3 per time point). […] The experimental procedure is provided in Example 15.
Male non-naïve cynomolgus monkeys (Hainan Jingang Laboratory Animal Co. Ltd., China), at least 2 kg body weight, were individually housed during the study in stainless steel mesh cages, provided ad libitum access to RO water, fed twice daily (except on the day of dosing when they were fed once) with ˜60 g Certified Monkey Diet each feed (Beijing Vital Keao Feed Co., Ltd., Beijing, China) and given daily treats of fresh fruit. They (n=5) were administered a dose of Compound 2 (AT-752) at 300 mg/kg in 40% PEG400, 10% solutol HS15, 50% 100 mM citrate buffer, pH 4.5 (v/v) by oral gavage, and blood samples (˜0.5 mL) were collected at 1, 2, 4, 8, 12 and 24 h post dose. Plasma was separated at each time point for pharmacokinetics, and stored at −70° C. […]
Pharmacokinetic measurements for FIGS. 11, 12, 13, 14, and 15 were analyzed using LC-MS/MS according to the protocol described herein. […]

[8] = target: DENV1 NS5 (Dengue virus type 1, UniProt P17763); assay: Thermal shift assay, DENV1 NS5; details: read-out: ΔTM
Chain of DENV1 NS5 (P17763 2494-3392): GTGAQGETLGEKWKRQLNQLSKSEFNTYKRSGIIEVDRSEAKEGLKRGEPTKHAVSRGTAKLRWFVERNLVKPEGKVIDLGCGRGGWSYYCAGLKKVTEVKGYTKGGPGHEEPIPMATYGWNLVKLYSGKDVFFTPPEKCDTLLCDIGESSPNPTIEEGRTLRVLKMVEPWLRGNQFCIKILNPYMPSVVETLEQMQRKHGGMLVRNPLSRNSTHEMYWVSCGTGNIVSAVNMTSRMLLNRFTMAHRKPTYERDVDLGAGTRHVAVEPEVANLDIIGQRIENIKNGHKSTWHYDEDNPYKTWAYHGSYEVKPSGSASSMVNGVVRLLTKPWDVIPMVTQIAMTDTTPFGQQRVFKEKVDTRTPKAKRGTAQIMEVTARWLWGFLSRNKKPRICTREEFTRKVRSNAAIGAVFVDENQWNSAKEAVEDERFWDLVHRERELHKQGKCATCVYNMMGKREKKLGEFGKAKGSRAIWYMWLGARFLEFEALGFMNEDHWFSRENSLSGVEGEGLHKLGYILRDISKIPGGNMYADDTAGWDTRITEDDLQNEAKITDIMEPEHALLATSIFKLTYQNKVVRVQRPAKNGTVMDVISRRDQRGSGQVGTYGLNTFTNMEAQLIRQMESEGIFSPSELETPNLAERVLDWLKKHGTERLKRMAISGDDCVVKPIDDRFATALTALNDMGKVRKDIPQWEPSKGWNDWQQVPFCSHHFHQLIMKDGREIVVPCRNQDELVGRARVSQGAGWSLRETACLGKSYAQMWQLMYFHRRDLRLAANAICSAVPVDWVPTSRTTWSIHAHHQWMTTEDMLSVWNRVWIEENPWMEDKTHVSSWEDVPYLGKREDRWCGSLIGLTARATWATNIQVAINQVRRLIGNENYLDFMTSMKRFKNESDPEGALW

[9] = target: DENV1 MTase domain (Dengue virus type 1, UniProt P17763); assay: Thermal shift assay, DENV1 MTase domain; details: read-out: ΔTM
Chain of DENV1 MTase domain (P17763 2495-2756): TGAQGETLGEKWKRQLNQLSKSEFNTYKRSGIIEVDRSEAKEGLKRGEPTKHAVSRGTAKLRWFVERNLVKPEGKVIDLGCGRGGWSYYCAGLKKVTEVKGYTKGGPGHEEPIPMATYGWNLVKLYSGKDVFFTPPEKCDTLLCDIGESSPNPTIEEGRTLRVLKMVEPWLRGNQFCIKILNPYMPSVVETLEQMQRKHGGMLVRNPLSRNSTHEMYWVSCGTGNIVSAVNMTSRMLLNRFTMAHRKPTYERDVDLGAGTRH

[10] = target: DENV4 MTase domain (Dengue virus type 4, UniProt P09866); assay: Thermal shift assay, DENV4 MTase domain; details: read-out: ΔTM
Chain of DENV4 MTase domain (P09866 2489-2751): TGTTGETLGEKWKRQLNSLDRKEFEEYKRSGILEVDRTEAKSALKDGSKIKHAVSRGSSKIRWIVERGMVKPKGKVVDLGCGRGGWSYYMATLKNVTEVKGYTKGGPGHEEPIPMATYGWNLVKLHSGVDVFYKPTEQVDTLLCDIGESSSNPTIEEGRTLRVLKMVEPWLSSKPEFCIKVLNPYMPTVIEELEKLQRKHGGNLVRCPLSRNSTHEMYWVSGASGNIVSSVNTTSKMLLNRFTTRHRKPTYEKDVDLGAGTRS

Row | SMILES | EC50 [1] [µM] | selectivity towards HCV ([2]; CC50/EC50) | EC50 ([2]; Hepatitis C virus, RNA virus, Huh-7) [µM] | CC50 [3] [µM] | CC50 [4] [µM] | CC50 [5] [µM] | IC50 [6] [µM] | concentration of AT-9010 in PBMCs [7] [pmol/10^6 cells] | ΔTm at 100 µM [8] [°C] | ΔTm at 100 µM [9] [°C] | ΔTm at 100 µM [10] [°C]
1 | CNc1nc(N)nc2c1ncn2[C@@H]1O[C@H](CO[P@](=O)(N[C@@H](C)C(=O)OC(C)C)Oc2ccccc2)[C@@H](O)[C@@]1(C)F [Compound 1, isopropyl ((R)-(((2R,3R,4R,5R)-5-(2-amino-6-(methylamino)-9H-purin-9-yl)-4-fluoro-3-hydroxy-4-methyltetrahydrofuran-2-yl)methoxy)(phenoxy)phosphoryl)-L-alaninate] | 54.2 | > 2,000 | 0.05 | > 100 | > 100 | > 170 | – | – | – | – | –
2 | C[C@@]1(F)[C@H](O)[C@@H](COP(=O)(O)OP(=O)(O)OP(=O)(O)O)O[C@H]1n1cnc2c(=O)[nH]c(N)nc21 [Compound 5] | – | – | – | – | – | – | 29.6 | 0.070±0.046 | 6.1 ± 0.1 | 3.8 ± 0.1 | 2.9 ± 0.1
